Measured values as given in patent US20060223837A1 (priority 2005, published 2006).

Legend:
human VR1 [1] = target: T1, human VR1 (Homo sapiens, UniProt Q8NER1); test: Human VR1 [3H]RTX binding assay; details: for h Binding % I (1 μM) / inhibition at 1 µM: inhibition of [3H]RTX binding at 1 μM; for Ki: [3H]RTX binding, HEK293 membranes; for inhibition at 1 µM: read-out: h Binding % I (1 μM)
T1 construct: expressed in transfected cells; host or cells: HEK293
Description: Compounds of the present invention were tested for their ability to inhibit the binding of tritiated resiniferatoxin ([^3H] RTX) to human VR1 receptors in a [^3H] RTX binding assay, as previously described (Zhang, Sui-Po. Improved ligand binding assays for vanilloid receptors. PCT Int. Appl. (2002), WO 0233411 A1 20020425 AN 2002:315209; Grant, Elfrida R., Dubin, Adrienne E., Zhang, Sui-Po, Zivin, Robert A., Zhong, Zhong Simultaneous intracellular calcium and sodium flux imaging in human VR1-transfected human embryonic kidney cells: a method to resolve ionic dependence of VR1-mediated cell death. J. Pharmacol. Exp. ther., 2002, 300(1), 9-17.) HEK293 cells were transfected with human VR1 and washed with Hank's balanced Salt Solution, dissociated with cell dissociation buffer (Sigma), and then centrifuged at 1000× g for 5 min. Cell pellets were homogenized in cold 20 mM HEPES buffer (pH 7.4), containing 5.8 mM NaCl, 320 mM sucrose, 2 mM MgCl2, 0.75 CaCl2 and 5 mM KCl and centrifuged at 1000× g for 15 min. The resultant supernate was then centrifuged at 40000× g for 15 min. The pelleted membranes were stored in a freezer at −80 C.
Approximately 120 μg protein/ml from membranes were incubated with indicated concentrations of [^3H]RTX in 0.5 ml of the HEPES buffer (pH 7.4) containing 0.25 mg/mL fatty acid-free bovine serum albumin at 37 C for 60 min. After cooling the reaction mixture to 4 C, 0.1 mg (x-acid glycoprotein was added to each sample, which was incubated at 4 C for 15 min and then centrifuged at 18500× g for 15 min. The tip of the microcentrifuge tube containing the pellet was cut off. Bound radioactivity was quantified by scintillation counting. Non-specific binding was assessed in the presence of 200 nM unlabeled resiniferatoxin.
Data were calculated according to the equation: % inhibtion=(total binding−binding)*100/(total binding−non specific binding).
Ki values were calculated based on an average of duplicate measurements using a GraphPad Prism program.

human VR1 [2] = target: T1, human VR1; test: Human VR1 functional assay (FLIPR intracellular Ca2+); type: cell-based; details: for IC50: antagonism of capsaicin-induced Ca2+ increase, read-out: h IC50; for inhibition at 1 µM: read-out: h % I (1 μM)
Description: The functional activity of the test compounds was determined by measuring changes in intracellular calcium concentration using a Ca^2+-sensitive fluorescent dye and FLIPR™ technology. Increases in Ca^2+ concentration were readily detected upon challenge with capsaicin. HEK293 Cells expressing human VR1 were grown on poly-D-lysine coated 384 well black-walled plates (BD 354663) and 1 day later loaded with Calcium 3 Dye for 35 min at 37 C, 5% CO2 and then for 25 min at room temperature, and subsequently tested for agonist-induced increases in intracellular Ca^2+ levels using FLIPR™ technology. Cells were challenged with test compounds (at varying concentrations, which are indicated in parentheses in the heading of the table below) and intracellular Ca^2+ was measured for 5 min prior to the addition of capsaicin to all wells to achieve a final concentration of eliciting an approximate 80% maximal response ([…]). EC50 or IC50 values were determined from dose-response studies. Curves were generated using the average of quadruplicate wells for each data point.

[3] = inhibition of capsaicin response
[4] = inhibition of capsaicin response, 5 μM

T1 sequence (Q8NER1 whole entry): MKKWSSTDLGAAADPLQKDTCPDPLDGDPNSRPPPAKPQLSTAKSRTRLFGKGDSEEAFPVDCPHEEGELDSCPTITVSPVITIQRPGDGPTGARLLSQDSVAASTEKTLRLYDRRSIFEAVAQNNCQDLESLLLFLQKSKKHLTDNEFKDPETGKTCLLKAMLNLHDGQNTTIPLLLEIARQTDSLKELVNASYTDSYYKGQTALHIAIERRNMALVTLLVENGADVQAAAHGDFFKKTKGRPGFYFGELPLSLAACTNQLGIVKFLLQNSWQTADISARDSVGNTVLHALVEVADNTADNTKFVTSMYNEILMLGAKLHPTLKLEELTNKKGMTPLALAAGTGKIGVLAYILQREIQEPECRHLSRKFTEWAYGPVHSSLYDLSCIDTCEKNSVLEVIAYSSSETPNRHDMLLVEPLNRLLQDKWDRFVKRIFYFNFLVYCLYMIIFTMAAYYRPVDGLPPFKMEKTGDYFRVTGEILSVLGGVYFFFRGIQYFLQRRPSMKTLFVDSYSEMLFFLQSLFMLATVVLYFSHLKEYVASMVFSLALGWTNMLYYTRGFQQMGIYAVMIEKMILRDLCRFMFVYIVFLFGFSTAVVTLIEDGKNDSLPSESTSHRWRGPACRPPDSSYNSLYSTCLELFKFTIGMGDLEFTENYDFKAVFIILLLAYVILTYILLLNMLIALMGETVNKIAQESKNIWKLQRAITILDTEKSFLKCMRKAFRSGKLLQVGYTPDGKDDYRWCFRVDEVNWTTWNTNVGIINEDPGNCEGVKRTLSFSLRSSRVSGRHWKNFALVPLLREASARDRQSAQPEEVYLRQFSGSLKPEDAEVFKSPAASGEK

CC(C)(C)c1ccc(CCC(=O)Nc2ccc(-c3cccc(CO)c3)cc2)cc1 [Cpd 23]
h Binding % I (1 μM) (human VR1 [1]): 40%

CC(C)(C)c1ccc(CCC(=O)Nc2ccc(-c3cccc(C#N)c3)cc2)cc1 [Cpd 25]
Ki (human VR1 [1]): 103 nM
inhibition at 1 µM (human VR1 [1]): 94%

COc1cccc(-c2ccc(NC(=O)CCc3ccc(C(C)(C)C)cc3)cc2)c1 [Cpd 27]
Ki (human VR1 [1]): 846 nM
inhibition at 1 µM (human VR1 [1]): 53%

CC(C)(C)c1ccc(/C=C/C(=O)Nc2cccc(-c3cccc(C(N)=O)c3)c2)cc1 [Cpd 33]
Ki (human VR1 [1]): 171 nM
inhibition at 1 µM (human VR1 [1]): 82%

NC(=O)c1cccc(-c2ccc(NC(=O)/C=C/c3ccc(C(F)(F)F)cc3)cc2)c1 [Cpd 47]
h Binding % I (1 μM) (human VR1 [1]): 1%

Cc1cc(-c2cccc(C(N)=O)c2)ccc1NC(=O)CCc1ccc(C(C)(C)C)cc1 [Cpd 50]
h Binding % I (1 μM) (human VR1 [1]): 11%

Cc1cc(NC(=O)CCc2ccc(C(C)(C)C)cc2)ccc1-c1cccc(C(N)=O)c1 [Cpd 51]
h Binding % I (1 μM) (human VR1 [1]): 19%

CC(C)(C)c1ccc(CCC(=O)Nc2ccc(-c3cccc(C(N)=O)c3)cc2F)cc1 [Cpd 52]
h Binding % I (1 μM) (human VR1 [1]): 1%

CC(C)(C)c1ccc(CCC(=O)Nc2ccc(-c3cccc(C(N)=O)c3)c(F)c2)cc1 [Cpd 53]
h Binding % I (1 μM) (human VR1 [1]): 27%

CC(=O)Nc1cccc(-c2ccc(NC(=O)CCc3ccc(C(C)(C)C)cc3)c(C)c2)c1 [Cpd 54]
h Binding % I (1 μM) (human VR1 [1]): 5%

CC(=O)Nc1cccc(-c2ccc(NC(=O)CCc3ccc(C(C)(C)C)cc3)c(F)c2)c1 [Cpd 56]
h Binding % I (1 μM) (human VR1 [1]): 16%

CC(C)(C)c1ccc(CCC(=O)Nc2ccc(-c3cccc(C(N)=O)c3)cc2)s1 [Cpd 63]
h Binding % I (1 μM) (human VR1 [1]): 1%

CC(=O)Nc1cccc(-c2ccc(NC(=O)CCc3ccc(C(C)(C)C)s3)cc2)c1 [Cpd 64]
h Binding % I (1 μM) (human VR1 [1]): 33%

CC(C)(C)c1ccc(CCC(=O)Nc2ccc(-c3cccc(C(N)=O)c3)cc2C(=O)O)cc1 [Cpd 66]
h Binding % I (1 μM) (human VR1 [1]): 1%

CC(C)(C)c1ccc(CCC(=O)Nc2cnc(-c3cccc(O)c3)cn2)cc1 [Cpd 184]
h % I (1 μM) (human VR1 [2]; [3]): 1%
h % I (5 μM) (human VR1 [2]; [4]): 14%

CC(C)(C)c1ccc(CCC(=O)Nc2cnc(-c3ccc(O)cc3)cn2)cc1 [Cpd 185]
h % I (1 μM) (human VR1 [2]; [3]): 1%
h % I (5 μM) (human VR1 [2]; [4]): 24%

CC(C)(C)c1ccc(CCC(=O)Nc2cnc(-c3ccc(CO)cc3)cn2)cc1 [Cpd 186]
h % I (1 μM) (human VR1 [2]; [3]): 6%
h % I (5 μM) (human VR1 [2]; [4]): 39%

CC(C)(C)c1ccc(CCC(=O)Nc2cnc(-c3cccnc3)cn2)cc1 [Cpd 187]
h % I (1 μM) (human VR1 [2]; [3]): 11%
h % I (5 μM) (human VR1 [2]; [4]): 15%

CC(C)(C)c1ccc(CCC(=O)Nc2cnc(-c3ccncc3)cn2)cc1 [Cpd 188]
h % I (1 μM) (human VR1 [2]; [3]): 4%
h % I (5 μM) (human VR1 [2]; [4]): 33%

Cc1cn(-c2ccc(NC(=O)CCc3ccc(S(=O)(=O)C(F)(F)F)cc3)cc2C(F)(F)F)cn1 [Cpd 209]
IC50 (human VR1 [2]): 48 nM
inhibition at 1 µM (human VR1 [2]; [3]): 100%

O=C(CCc1ccc(C(F)(F)F)cc1)Nc1cnc(-c2ccccc2O)c(C(F)(F)F)c1 [Cpd 213]
IC50 (human VR1 [2]): 64.5 nM
inhibition at 5 µM (human VR1 [2]; inhibition of capsaicin response, 5 μM, read-out: h % I (5 μM)): 100%

Cc1cn(-c2ccc(NC(=O)CCc3ccc(SC(F)(F)F)cc3)cc2C(F)(F)F)cn1 [Cpd 219]
IC50 (human VR1 [2]): 100 nM
inhibition at 1 µM (human VR1 [2]; [3]): 100%

Cc1cn(-c2ccc(NC(=O)CCc3ccc([S+]([O-])C(F)(F)F)cc3)cc2C(F)(F)F)cn1 (stereo not shown) [Cpd 222]
IC50 (human VR1 [2]): 137 nM
inhibition at 1 µM (human VR1 [2]; [3]): 100%

O=C(/C=C/c1ccc(C(F)(F)F)cn1)Nc1ccc(-n2cnc(Cl)c2Cl)c(C(F)(F)F)c1 [Cpd 235, trans-N-[4-(4,5-Dichloro-imidazol-1-yl)-3-trifluoromethyl-phenyl]-3-(5-trifluoromethyl-pyridin-2-yl)-acrylamide]
IC50 (human VR1 [2]): 294 nM
inhibition at 1 µM (human VR1 [2]; [3]): 99%
